Test results: patent publication US10208021B2, “Substituted tetrahydroisoquinoline compounds as factor XIa inhibitors” (BRISTOL-MYERS SQUIBB COMPANY, priority 2011, dated 2019)
Structures can show the parent of a compound that is named as a salt.

Target: purified human Factor XIa (Homo sapiens (Human), UniProt P03951)
Assay: Factor XIa chromogenic substrate (S-2366) inhibition assay
Format: biochemical
Procedure: The effectiveness of compounds of the present invention as inhibitors of the coagulation factors XIa, VIIa, IXa, Xa, XIIa, plasma kallikrein or thrombin, can be determined using a relevant purified serine protease, respectively, and an appropriate synthetic substrate. The rate of hydrolysis of the chromogenic or fluorogenic substrate by the relevant serine protease was measured both in the absence and presence of compounds of the present invention. […] A decrease in the rate of absorbance or fluorescence change in the presence of inhibitor is indicative of enzyme inhibition. Such methods are known to one skilled in the art. The results of this assay are expressed as the inhibitory constant, Ki. […] JT Baker or Fisher Scientific). […] Values of Ki were determined by allowing the protease to react with the substrate in the presence of the inhibitor. Reactions were allowed to go for periods of 20-180 minutes (depending on the protease) and the velocities (rate of absorbance or fluorescence change versus time) were measured.

[1] = substrate S-2366, activity ranges, Table A

Sequence of purified human Factor XIa (P03951 388-625): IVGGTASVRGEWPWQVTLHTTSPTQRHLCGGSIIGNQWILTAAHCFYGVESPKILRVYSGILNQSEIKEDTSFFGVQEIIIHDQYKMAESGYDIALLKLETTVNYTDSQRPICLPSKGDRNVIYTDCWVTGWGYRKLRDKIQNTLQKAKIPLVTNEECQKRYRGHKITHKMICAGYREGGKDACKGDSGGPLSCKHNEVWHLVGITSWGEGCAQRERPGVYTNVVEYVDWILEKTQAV
Sequence of purified human Factor XIa (P03951 19-387 partner): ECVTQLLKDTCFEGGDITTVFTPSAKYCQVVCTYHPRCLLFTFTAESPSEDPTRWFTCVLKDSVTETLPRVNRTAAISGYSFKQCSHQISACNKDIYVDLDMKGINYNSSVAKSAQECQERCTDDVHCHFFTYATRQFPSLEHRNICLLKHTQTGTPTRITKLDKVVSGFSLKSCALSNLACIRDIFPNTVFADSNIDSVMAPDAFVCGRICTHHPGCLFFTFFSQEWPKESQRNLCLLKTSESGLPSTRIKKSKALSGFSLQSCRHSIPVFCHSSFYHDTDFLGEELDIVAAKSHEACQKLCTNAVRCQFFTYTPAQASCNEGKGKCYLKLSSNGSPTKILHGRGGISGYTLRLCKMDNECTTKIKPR

Ki [1]	Ki (substrate S-2366, Table 1)	Compound
< 5 nM		O=C(OC1CCCC1)c1ccc(NC(=O)C2c3cccc(N4CCC(N5CCCC5)CC4)c3CCN2C(=O)/C=C/c2c(-n3cnnn3)ccc(Cl)c2F)cc1 (racemic) [Example 124]
500 to 5000 nM		CCOC(=O)c1ccc(NC(=O)C2c3cccc(N4CCOCC4)c3CCN2C(=O)C=Cc2c(-n3cnnn3)ccc(Cl)c2F)cc1 (stereo not shown) [Example 186]
100 to 500 nM		COc1cccc(NC(=O)c2ccc(NC(=O)C3c4cccc(N5CCNCC5)c4CCN3C(=O)/C=C/c3cc(Cl)c(F)cc3-n3cnnn3)cc2)c1 (racemic) [Example 75]
< 5 nM		CN1CCCN(c2cccc3c2CCN(C(=O)C=Cc2c(-n4cnnn4)ccc(Cl)c2F)C3C(=O)Nc2ccc(C(=O)O)cc2)CC1 (stereo not shown) [Example 265]
< 5 nM		O=C(O)c1ccc(NC(=O)C2c3cccc(N4CCC(C(=O)N5CCOCC5)CC4)c3CCN2C(=O)/C=C/c2c(-n3cnnn3)ccc(Cl)c2F)cc1 (racemic) [Example 140]
	< 5 nM	O=C(O)c1ccc(NC(=O)C2c3cccc(N4CCNCC4)c3CCN2C(=O)C=Cc2c(-n3cnnn3)ccc(Cl)c2F)cc1 (stereo not shown) [Example 13]
< 5 nM		CC1(O)CCN(c2cccc3c2CCN(C(=O)C=Cc2c(-n4cnnn4)ccc(Cl)c2F)C3C(=O)Nc2ccc(C(=O)O)cc2)CC1 (stereo not shown) [Example 268]
	86.5 nM	CC(C)(C)OC(=O)c1ccc(NC(=O)[C@@H]2c3cccc(N4CCCCC4=O)c3CCN2C(=O)/C=C/c2c(-n3cnnn3)ccc(Cl)c2F)cc1 [compound 37]
100 to 500 nM		O=C(Nc1ccccc1)c1ccc(NC(=O)C2c3cccc(N4CCNCC4)c3CCN2C(=O)/C=C/c2cc(Cl)c(F)cc2-n2cnnn2)cc1 (racemic) [Example 69]
5 to 10 nM		O=C(Nc1ccccc1)C1c2cccc(N3CCNCC3)c2CCN1C(=O)/C=C/c1c(-n2cnnn2)ccc(Cl)c1F (stereo not shown) [Example 8]
5 to 10 nM		CCOC(=O)c1ccc(NC(=O)[C@@H]2c3cccc(N4CCOCC4)c3CC(C)(C)N2C(=O)/C=C/c2c(-n3cnnn3)ccc(Cl)c2F)cc1 [Example 197]
	1010 nM	CCOC(=O)c1ccc(NC(=O)C2c3cccc(N4CCC(N5CCCC5=O)CC4)c3CCN2C(=O)C=Cc2c(-n3cnnn3)ccc(Cl)c2F)cc1 (stereo not shown) [Example 125]
< 5 nM		O=C(O)c1ccc(NC(=O)C2c3cccc(N4CCS(=O)(=O)CC4)c3CCN2C(=O)/C=C/c2c(C(F)(F)F)ccc(Cl)c2F)cc1 (racemic) [Example 225]
5 to 10 nM		CCOC(=O)c1ccc(NC(=O)[C@@H]2c3cccc(N4CCN(C)CC4=O)c3CCN2C(=O)/C=C/c2c(-n3cnnn3)ccc(Cl)c2F)cc1 [Example 192, (S,E)-Ethyl 4-(2-(3-(3-chloro-2-fluoro-6-(1H-tetrazol-1-yl)phenyl)acryloyl)-5-(4-methyl-2-oxopiperazin-1-yl)-1,2,3,4-tetrahydroisoquinoline-1-carboxamido)benzoate, TFA Salt]
100 to 500 nM		NCc1ccc(Cl)cc1/C=C/C(=O)N1CCc2c(cccc2N2CCNCC2)C1C(=O)Nc1ccc(C(=O)O)cc1 (stereo not shown) [Example 32, (E)-4-(2-(3-(2-(Aminomethyl)-5-chlorophenyl)acryloyl)-5-(piperazin-1-yl)-1,2,3,4-tetrahydroisoquinoline-1-carboxamido)benzoic acid, tri TFA Salt]
5 to 10 nM		CC(=O)c1ccc(Cl)c(F)c1C=CC(=O)N1CCc2c(cccc2N2CCC(N3CCCC3)CC2)C1C(=O)Nc1ccc(C(=O)OCc2ccccc2)cc1 (stereo not shown) [Example 171]
5 to 10 nM		CC(=O)c1ccc(Cl)c(F)c1/C=C/C(=O)N1CCc2c(cccc2N2CCC(N3CCCC3)CC2)C1C(=O)Nc1ccc(C(=O)OC(C)(C)C)cc1 (racemic) [Example 153]

Compound	Ki [1]	Ki (substrate S-2366, Table 1)
CN1CCN(c2cccc3c2CCN(C(=O)/C=C/c2c(-n4cnnn4)ccc(Cl)c2F)C3C(=O)Nc2ccc(C#N)cc2)CC1 (stereo not shown) [Example 20]	5 to 10 nM	
N#Cc1ccc(NC(=O)C2c3cccc(N4CCNCC4)c3CCN2C(=O)/C=C/c2c(-n3cnnn3)ccc(Cl)c2F)cc1 (stereo not shown) [Example 6]	5 to 10 nM	
